Assay results: US20230020329A1, “Annelated 9-hydroxy-1,8-dioxo-1,3,4,8-tetrahydro-2H-pyrido[1,2-a]pyrazine-7-carboxamides as HIV integrase inhibitors, methods of preparation and application thereof” (priority 2019, published 2023)
pEC50: −log10 of the molar value. Values after ≈ are worked out from the molar mass of the structure shown. Where two headings read alike, the source gives them in different places.

Key:
[1] = test system: HIV-1 (NL4.3 strain) carrying the GFP reporter gene (NL4.3-GFP); test: HIV-1 NL4.3-GFP infection of SupT1 cells; format: cell-based; details: Human immunodeficiency virus 1, SUP-T1, read-out: Inhibitory activity (EC50) of HIV-1 (NL4.3 strain) carrying the GFP reporter gene
Procedure: 6. Inhibitory Activity of HIV-1 (NL4.3 Strain) Carrying the GFP Reporter Gene (NL4.3-GFP) in the SuPT1 Cell Line.
The evaluation was done by RetroVirox Inc. (San Diego, Calif., USA). SupT1 cells were infected with the HIV NL4.3 strain carrying the green fluorescent protein gene (NL4.3-GFP). The virus sample was produced by transfection of 293T cells with proviral DNA. The sample was frozen 48 hours after transfection and stored until use. To enhance the efficiency of infection, a suspension of SupT1 cells was precipitated from the infectious mixture by centrifugation. Test substances were added to the cells immediately before adding the virus. After 2 hours of incubation, the infectious mixture was replaced with a fresh culture medium containing test samples. The effectiveness of the infection was determined after 45 hours by counting the percentage of fluorescent cells in comparison with uninfected cell cultures. The cytotoxicity of the test compounds was determined in parallel on the same, but not infected, SupT1 cell line using the XTT reagent. Serial tenfold dilutions of the samples (starting from 10 μM when determining antiviral activity or from 100 μM for determining cytotoxicity). As a negative control, 0.1% DMSO was used. The values of EC50 were calculated. The quality of the tests was determined using the following controls: signal-to-noise ratio, integrase inhibitor raltegravir (1 μM), and test reproducibility.

[2] = Thermodynamic (shake-flask) solubility; format: physicochemical; details: for solubility at 24 h: thermodynamic from solid
Procedure: The test compound of general formula 1 or 2 (2 mg) was weighed into a glass vial. The pION universal buffer (0.5 ml) with pH 7.4 or deionized water was added to appropriate vials. The vials were tightly closed with a lid, placed on a rotating shaker, and incubated for 24 hours to balance the solution and the solid phase at the saturation point. Each resulting solution (200 μl) was taken (in duplicate) from the vials, placed in a 96-well MultiScreen Solubility Filter Plate (Millipore), and filtered using vacuum ([…]) into a polypropylene plate with a U-shaped bottom. If necessary, the filtrates were diluted with an appropriate buffer (water). Then, 120 μl of the filtarate (or a diluted filtrate) was transferred to a 96-well plate with a UV-transparent bottom and 60 μl/well of acetonitrile and 20 μl/well of DMSO were added and thoroughly mixed with a multichannel pipette (acetonitrile and DMSO were added to obtain a required composition of calibration standards, as described below). The optical density of the resulting solutions was measured on a multifunction Infinite 200 PRO plate reader in the wavelength range from 240 nm to 400 nm in steps of 10 nm. The value of ODλ for solutions was assessed at a wavelength chosen for plotting a calibration curve.
The concentration of a substance in the solution after the solubility test was evaluated using a calibration curve. A stock solution in DMSO with a concentration of 2 mg/ml was prepared from a separate sample. […] The range of final concentrations of the calibration curve was 0.2; 0.1; 0.05; 0.025; 0.0125; 0.00625, and 0 mg/ml. Calibration solutions were prepared in a 96-well UV plate as follows: 20 μl of a 10-fold stock solution in DMSO, 60 μl of acetonitrile, and 120 μl of the appropriate buffer were added to the well and stirred. The optical density of the resulting solutions was measured on a multifunction Infinite 200 PRO plate reader in the wavelength range from 240 nm to 400 nm with a step of 10 nm. The optimal wavelength typically corresponding to the absorption maximum was chosen, and a linear dependence of OD at a given wavelength on the concentration of the compound was obtained.
The concentration of the compound in the filtrate after the solubility test was calculated according to the formula:
shake-flask solubility=(ODλfiltrate−ODλblank)/(slope×1.67×filtrate dilution)
wherein slope means the slope of the calibration curve; 1.67 is the filtrate acetonitrile+DMSO dilution ratio; filtrate dilution is an additional dilution of the filtrate, if applicable.

[3] = test system: human plasma proteins; test: Plasma protein binding by equilibrium dialysis, human; format: in vitro ADME; details: for Binding class / Extraction / Permeability: human; for Bound: human plasma diluted to 50%, 37° C.; for Bound / Extraction / Permeability: 1 μM, 4 h; for Permeability: dialysis membrane
Procedure: (§1) To assess protein binding, pooled samples of blood plasma diluted with phosphate buffer up to 50% were used. The test was carried out in a teflon coated 48-well dialysis plate. Each well contained two separate chambers separated by a vertical semipermeable dialysis membrane with 8 kDa pores. A plasma sample with 1 μM of the test compound was placed into one of the chambers, and a buffer solution (pH=7.2) was placed in the other chamber. Over time, at 37° C. while rocking, passive diffusion of the unbound compound occurred and after 4 hours the equilibrium state between the chambers with plasma and the buffer solution was reached. The amount of free fraction was evaluated by HPLC-MS/MS following precipitation of the proteins by acetonitrile. Also, the study involved evaluation of stability of the substance during the 4-hour period and passive permeability through the dialysis membrane in the buffer by mass balance. Warfarin was used as the control compound. The results are presented in Table 4, from which it follows that the compounds of general formula 1.1 have a high degree of binding to human and rat plasma proteins.

[4] = test system: rat plasma proteins; test: Plasma protein binding by equilibrium dialysis, rat; format: in vitro ADME; details: for Binding class / Extraction / Permeability: rat; for Bound: rat plasma diluted to 50%, 37° C.; for Bound / Extraction / Permeability: 1 μM, 4 h; for Permeability: dialysis membrane
Procedure: as §1

[5] = aqueous buffer, pION universal buffer pH 7.4, 24 h, read-out: Solubility, pH 7.4, value

SMILES | pEC50 [1] | solubility at 24 h [2, 5] [µg/mL] | solubility at 24 h ([2]; deionized water, 24 h, read-out: Solubility, water, value) [µg/mL] | Binding class [3] | Bound [3] [%] | Extraction [3] [%] | Permeability [3] [%] | Binding class [4] | Bound [4] [%] | Extraction [4] [%] | Permeability [4] [%] | Solubility, water, value ([2]; deionized water, 24 h) [µg/mL] | solubility at 24 h ([2]; deionized water, water, read-out: Solubility in water) [µg/mL]
C[C@H]1CO[C@@H]2Cn3cc(C(=O)NCc4ncc(F)cc4F)c(=O)c(O)c3C(=O)N12 [Compound 1.1.17, (3S,11aR)-6-hydroxy-N-[(3,5-difluoropyridin-2-yl)methyl]-3-methyl-5,7-dioxo-2,3,5,7,11,11a-hexahydro[1,3]oxazolo[3,2-a]pyrido[1,2-d]pyrazine-8-carboxamide] | 8.82 | 196 (≈ 482 µM) | 131 (≈ 322 µM) | High | 98.8 | 94.6 | 84.8 | High | 99.9 | 108 | 90.9 | – | –
C[C@H]1CO[C@@H]2Cn3cc(C(=O)NCc4ccc(F)nc4F)c(=O)c(O)c3C(=O)N12 [Compound 1.1.19, (3S,11aR)-6-hydroxy-N-[(2,6-difluoropyridin-3-yl)methyl]-3-methyl-5,7-dioxo-2,3,5,7,11,11a-hexahydro[1,3]oxazolo[3,2-a]pyrido[1,2-d]pyrazine-8-carboxamide] | 8.72 | 232 (≈ 571 µM) | – | High | 99.0 | 95.0 | 84.0 | High | 98.9 | 94.5 | 83.8 | 269 (≈ 662 µM) | 269 (≈ 662 µM)
